From patent US20060150260A1, “Genes related to drug resistance” (Northwestern University, priority 2004, published 2006)

Assays:
Type in all cases: cell-based, human
[1] = test system: B6-containing MCF-7 cells; assay: Mitochondrial mass, MitoFluor 589 staining, flow cytometry; details: 4OHTAM for 72 hr
Method: MitoTracker Red CMXRos (mitochondrial membrane potential) and MitoFluor 589 (mitochondrial mass detection): both dyes were obtained from Molecular Probes, Calif., and added to cells (250 nM final concentration) for 25 min at 37° C. in the CO2 incubator. Cells were then trypsinized and analyzed by flow cytometry or by fluorescent microscope.
(§1) Flow Cytometry was performed using a Beckman Coulter Epics XL-MCL (Beckman, Fla.) with System II v. 3.0 software and CYAN (DakoCytomation, Colo.) and Summit v. 3.3 software.
The fate of mitochondria was also examined in experiments assessing mitochondrial activity (FIG. 7C). […] The intracellular content of this organelle on a per cell basis remains fairly constant with only insignificant fluctuations (FIG. 7B), indicating a tight control of the number of mitochondria per cell. 1S A population of B6-containing cells treated with 4OHTAM for 72 hr contains approximately 30% of cells with reduced mitochondrial content (67% have normal mitochondrial content), which is close to the distribution of parental MCF-7 cells treated for 48 hr (FIG. 7B). At the same two timepoints mitochondrial activity distributions are vastly different: a separate low-activity peak for MCF-7 and a barely noticeable asymmetry (“shoulder”) for B6-cells (FIG. 7C). The present invention is not limited to a particular mechanism. […]

MCF-7 cells [2] = assay: Apoptosis check: propidium iodide DNA content (FACS) and DNA ladder
Method: Cell staining. Propidium iodide (DNA content): cells were permeabilized with cold EtOH, incubated with propidium iodide/RNase staining buffer (BD Bioscience, Calif.) for 15 min at room temperature, and analyzed by flow cytometry.
as §1

[3] = test system: MCF-7 cells infected with cDNA inserts B4, B6, D10, E5; assay: Colony forming assay after 4OHTAM treatment, cDNA (RIG)-containing populations
Method: (§2) Colony Forming Assay: five hundred cells were plated per 60 mm plate and allowed to recover overnight. […] Treatment continued for 14 days with media replacement every two days; then cells were allowed to recover for two weeks, fixed with alcohol and stained with crystal violet (2% w/v). Colonies (over 150 cells per group) were counted. Experiments were done in triplicate.
(§3) Resistance was determined by colony-forming assay as described in Materials and Methods: plates were stained, and colonies were counted (FIG. 2B); results of the experiment were plotted (FIG. 2C). […] In heterogeneous populations the level of resistance is lower than in single-cell clones (presence of cells without inserts, different levels of expression, etc), so resistance induced by selected cDNAs in individual cells can be much higher. As selected cDNAs induced resistance to 4OHTAM, they were considered to be resistance-inducing genes (RIGs).

[4] = test system: GFP-expressing MCF-7 control cells; assay: Colony forming assay after 4OHTAM treatment, GFP control; details: 7.5 µM of 4OHTAM, 14 days treatment
Method: as §2, §3

MCF-7 cells [5] = assay: Cell growth with 4OHTAM; design: cell growth: dose or concentration left out as unconfirmed
Method: Cells: MCF-7 (ATCC: HTB-22) cells were grown in Dulbecco's Modified Eagle's medium, 2 mM glutamine, 0.1 mM non-essential amino acids, 10 units/ml of penicillin, 10 μg/ml of streptomycin (all—Invitrogen, Calif.), supplemented with 10% fetal bovine serum (HyClone, Utah), 6 μg/ml of insulin (Sigma, Mo.), 30 μg/ml of fungin, and 10 μg/ml of plasmocin (both—InvivoGen, Calif.). 4-Hydroxytamoxifen (Sigma, Mo.) was used as 10 mM stock solution in ethanol and stored at −20° C.
To gain a better understanding of changes induced by the RIGs, cell growth of RIGs-expressing populations was evaluated with and without 4OHTAM (FIG. 3). In drug-free media the proliferation rate of the B4 RIG-expressing cells was at least equal to parental MCF-7 cells or GFP-expressing control, while for B6, D10 and E5 the proliferation rate was higher (FIG. 3A). […] It is contemplated that cessation of growth for parental and control cells reflects terminal damage and initial stages of cellular demise, whereas for RIG E5-expressing cells cessation of growth is a protective response to drug exposure.

In the case of 4-Hydroxytamoxifen [4OHTAM], the “cells with normal mitochondrial content” value [1] is reported as 67%, the “cells with reduced mitochondrial content” value [1] is reported as “approximately 30%” and the “DNA fragmentation pattern (DNA ladder)” value (MCF-7 cells [2]; genomic DNA of 4OHTAM-treated cells) is reported as “no characteristic DNA fragmentation pattern (DNA ladder) was detected”. For the same substance, the “apoptotic sub-G1 peak in FACS profiles” value (MCF-7 cells [2]; up to 20 μM 4OHTAM) was “No evidence was found of a characteristic sub-G1 peak”, the “resistance of cDNA-expressing cells relative to control (EGFP-only) cells” value ([3]; 7.5 μM 4OHTAM, colony-forming assay) was “five-six times more resistant” and the “survival of populations, colony formation assay” value ([3]; cDNA-containing populations, 7.5 µM of 4OHTAM, 14 days treatment) was ~65%. For the same substance, the “survival of GFP-expressing control, colony formation assay” value [4] was > 10%, the cell proliferation (MCF-7 cells [5]; 10 mM 4OHTAM, MCF-7 cells) was “blocked” and the cell growth (MCF-7 cells [5]; RIGs-containing and parental cells) was “inhibited”.
